Results as given in BindingDB's records for doi:10.1021/jm990250u (Hoechst Marion Roussel, 1999).

target: Stromelysin-1 (Homo sapiens, UniProt P08254); experiment: Inhibitory concentration against human matrix metalloprotease-3 (MMP-3)
Sequence (P08254 whole entry): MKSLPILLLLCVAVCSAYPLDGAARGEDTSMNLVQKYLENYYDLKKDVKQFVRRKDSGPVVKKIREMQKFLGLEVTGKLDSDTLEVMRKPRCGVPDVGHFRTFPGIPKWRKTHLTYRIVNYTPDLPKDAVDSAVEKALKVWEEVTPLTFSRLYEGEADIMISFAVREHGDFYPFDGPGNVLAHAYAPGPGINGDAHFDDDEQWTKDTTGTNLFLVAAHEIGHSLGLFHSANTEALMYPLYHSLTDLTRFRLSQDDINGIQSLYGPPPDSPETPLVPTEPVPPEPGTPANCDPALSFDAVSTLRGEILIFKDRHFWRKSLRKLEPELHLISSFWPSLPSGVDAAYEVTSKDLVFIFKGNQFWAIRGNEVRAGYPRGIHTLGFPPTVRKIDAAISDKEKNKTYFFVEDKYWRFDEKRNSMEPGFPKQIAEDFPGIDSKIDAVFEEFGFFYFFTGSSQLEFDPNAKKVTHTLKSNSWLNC

IC50, 10 µM:
CSc1nccc(-c2ccc(S(=O)(=O)N3Cc4ccccc4CC3C(=O)O)s2)n1 (configuration not stated)
O=C(NO)C1Cc2ccccc2CN1S(=O)(=O)c1cc(Br)c(Br)s1 (configuration not stated) [2-(4,5-Dibromo-thiophene-2-sulfonyl)-1,2,3,4-tetrahydro-isoquinoline-3-carboxylic acid hydroxyamide]
O=C(NO)C1Cc2ccccc2CN1S(=O)(=O)c1cc(S(=O)(=O)c2ccccc2)cs1 (configuration not stated) [2-(4-Benzenesulfonyl-thiophene-2-sulfonyl)-1,2,3,4-tetrahydro-isoquinoline-3-carboxylic acid hydroxyamide]
CCCCCCCCCCCCCCCCS(=O)(=O)N1Cc2ccccc2CC1C(=O)NO (configuration not stated) [2-(Hexadecane-1-sulfonyl)-1,2,3,4-tetrahydro-isoquinoline-3-carboxylic acid hydroxyamide]
O=C(NO)C1Cc2ccccc2CN1S(=O)(=O)Cc1ccccc1 (configuration not stated) [2-Phenylmethanesulfonyl-1,2,3,4-tetrahydro-isoquinoline-3-carboxylic acid hydroxyamide]
O=C(Nc1cccc(S(=O)(=O)N2Cc3ccccc3CC2C(=O)NO)c1)c1ccccc1O (configuration not stated) [2-[3-(2-Hydroxy-benzoylamino)-benzenesulfonyl]-1,2,3,4-tetrahydro-isoquinoline-3-carboxylic acid hydroxyamide]
COc1ccc(S(=O)(=O)N2Cc3ncn(C)c3C[C@@H]2C(=O)O)cc1 [(R)-5-(4-Methoxy-benzenesulfonyl)-1-methyl-4,5,6,7-tetrahydro-1H-imidazo[4,5-c]pyridine-6-carboxylic acid]
